One experiment deals with T1, GRK5 (Homo sapiens, UniProt P34947).
T1 construct: purchased Thermo Scientific
Kind of experiment: Lance Kinase Activity Assay, GRK5. Particulars: biochemical Lance kinase activity assay; class symbols A-F; read-out: GRK5 LANCE Assay (IC-50). The procedure, abridged: (§1)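 IC50s from sigmoidal dose-response over 0.0025-10 μM compound, with phosphorylated ULight substrate detected by Eu anti-phospho antibody FRET after EDTA quench.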

The target in another experiment is T2, GRK2 (Homo sapiens, UniProt P25098).
T2 construct: purchased Thermo Scientific
T2 sequence (P25098 1-689): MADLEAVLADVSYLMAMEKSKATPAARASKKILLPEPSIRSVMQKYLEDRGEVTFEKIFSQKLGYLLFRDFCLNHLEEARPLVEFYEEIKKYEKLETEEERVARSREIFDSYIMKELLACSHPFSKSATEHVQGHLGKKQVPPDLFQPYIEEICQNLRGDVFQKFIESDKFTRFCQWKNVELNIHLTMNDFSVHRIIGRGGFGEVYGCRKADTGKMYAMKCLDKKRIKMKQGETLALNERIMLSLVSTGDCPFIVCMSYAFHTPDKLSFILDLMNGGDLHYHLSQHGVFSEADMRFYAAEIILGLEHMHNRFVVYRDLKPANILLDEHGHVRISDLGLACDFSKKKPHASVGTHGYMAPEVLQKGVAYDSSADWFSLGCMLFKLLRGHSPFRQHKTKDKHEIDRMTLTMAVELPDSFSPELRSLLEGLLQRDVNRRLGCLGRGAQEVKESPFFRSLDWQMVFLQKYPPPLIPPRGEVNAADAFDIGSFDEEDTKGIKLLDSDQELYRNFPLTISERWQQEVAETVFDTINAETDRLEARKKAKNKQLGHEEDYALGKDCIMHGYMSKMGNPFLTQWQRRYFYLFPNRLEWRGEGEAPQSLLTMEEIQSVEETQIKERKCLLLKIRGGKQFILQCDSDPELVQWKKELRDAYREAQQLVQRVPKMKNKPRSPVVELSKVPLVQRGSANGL
Nature of the experiment: Lance Kinase Activity Assay, GRK2. To be noted: biochemical Lance kinase activity assay; class symbols A-F; read-out: GRK2 LANCE Assay (IC-50). The procedure, abridged: as §1
In general terms: Time-resolved FRET reads energy transfer from a long-lived donor to a nearby acceptor.

The values below come from patent US20240294522A1 (Lead Discovery Center GmbH, priority 2021, published 2024).

Some results are limits rather than exact numbers.

T1 sequence (P34947 whole entry): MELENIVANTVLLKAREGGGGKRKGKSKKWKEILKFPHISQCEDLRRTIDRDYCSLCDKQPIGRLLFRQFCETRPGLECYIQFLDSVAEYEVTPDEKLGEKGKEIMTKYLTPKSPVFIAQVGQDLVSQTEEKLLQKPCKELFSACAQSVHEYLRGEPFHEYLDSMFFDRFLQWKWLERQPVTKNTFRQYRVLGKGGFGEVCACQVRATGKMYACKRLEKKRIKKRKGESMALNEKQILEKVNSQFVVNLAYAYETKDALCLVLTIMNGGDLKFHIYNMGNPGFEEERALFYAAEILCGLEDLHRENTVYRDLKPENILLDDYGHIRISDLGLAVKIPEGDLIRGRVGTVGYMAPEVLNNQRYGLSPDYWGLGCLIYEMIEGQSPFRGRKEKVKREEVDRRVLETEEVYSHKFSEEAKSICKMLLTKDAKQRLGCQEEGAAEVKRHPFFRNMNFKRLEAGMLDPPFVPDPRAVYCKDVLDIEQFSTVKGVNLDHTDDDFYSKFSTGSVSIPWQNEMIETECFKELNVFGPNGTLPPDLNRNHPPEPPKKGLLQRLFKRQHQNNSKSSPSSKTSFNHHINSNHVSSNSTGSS

For the compound `COc1ccc([C@@H](C)NC(=O)/C(C#N)=C/c2c[nH]c3ncc(-c4cnn5ccccc45)cc23)cc1OC` [Example 167], the IC50 was at most 50 nM at GRK5 and 1000 to 10000 nM at GRK2.

For `COc1ccc([C@@H](C)NC(=O)/C(C#N)=C/c2c[nH]c3ncc(-c4cn(C)nc4C)cc23)cc1OC` [Example 168, (R,E)-2-cyano-N-(1-(3,4-dimethoxyphenyl)ethyl)-3-(5-(1,3-dimethyl-1H-pyrazol-4-yl)-1H-pyrrolo[2,3-b]pyridin-3-yl)acrylamide], the IC50 at GRK5 was at most 50 nM; at GRK2 it was 1000 to 10000 nM.

As for `COc1ccc([C@@H](C)NC(=O)/C(C#N)=C/c2c[nH]c3nccc(-c4ccc(C5CCN(C)CC5)cc4)c23)cc1OC` [Example 170], the IC50 at GRK5 was at most 50 nM; on GRK2, 1000 to 10000 nM.

Consider `COc1ccc([C@@H](C)NC(=O)/C(C#N)=C/c2c[nH]c3nccc(-c4ccc(N5CCN(C)CC5)cc4)c23)cc1OC` [Example 171, (R,E)-2-cyano-N-(1-(3,4-dimethoxyphenyl)ethyl)-3-(4-(4-(4-methylpiperazin-1-yl)phenyl)-1H-pyrrolo[2,3-b]pyridin-3-yl)acrylamide], for which the IC50 was at most 50 nM at GRK5 and 1000 to 10000 nM on GRK2.

For `COc1ccc([C@@H](C)NC(=O)/C(C#N)=C/c2c[nH]c3nccc(-c4cccc(N5CCN(C)CC5)c4)c23)cc1OC` [Example 172, (R,E)-2-cyano-N-(1-(3,4-dimethoxyphenyl)ethyl)-3-(4-(3-(4-methylpiperazin-1-yl)phenyl)-1H-pyrrolo[2,3-b]pyridin-3-yl)acrylamide], the IC50 on GRK5 is at most 50 nM; on GRK2, 1000 to 10000 nM.

With `COc1ccc([C@@H](C)NC(=O)/C(C#N)=C/c2c[nH]c3nccc(-c4ccc(CN5CCN(C)CC5)cc4)c23)cc1OC` [Example 173, (R,E)-2-cyano-N-(1-(3,4-dimethoxyphenyl)ethyl)-3-(4-(4-((4-methylpiperazin-1-yl)methyl)phenyl)-1H-pyrrolo[2,3-b]pyridin-3-yl)acrylamide], the values for the IC50 at GRK5 and on GRK2 were at most 50 nM and 1000 to 10000 nM, respectively.

Take `COc1ccc([C@@H](C)NC(=O)/C(C#N)=C/c2c[nH]c3nccc(-c4ccccc4)c23)cc1OC` [Example 175]: the IC50 is at most 50 nM at GRK5 and 1000 to 10000 nM on GRK2.

For the compound `COc1ccc([C@@H](C)NC(=O)/C(C#N)=C/c2c[nH]c3nccc(-c4cccc(CN(C)C)c4)c23)cc1OC` [Example 176, (R,E)-2-cyano-N-(1-(3,4-dimethoxyphenyl)ethyl)-3-(4-(3-((dimethylamino)methyl)phenyl)-1H-pyrrolo[2,3-b]pyridin-3-yl)acrylamide], the IC50 is at most 50 nM at GRK5 and 1000 to 10000 nM on GRK2.

For the compound `COc1ccc([C@@H](C)NC(=O)/C(C#N)=C/c2c[nH]c3nccc(-c4cc(F)cc(F)c4)c23)cc1OC` [Example 178], the IC50 on GRK5 was 100 to 500 nM; on GRK2, above 10000 nM.

Turning to `C[C@@H](NC(=O)/C(C#N)=C/c1c[nH]c2ncc(-c3ccccc3)cc12)c1ccc(F)cc1` [Example 179], the IC50 lay within 100 to 500 nM at GRK5 and 1000 to 10000 nM on GRK2.

As for `C[C@@H](NC(=O)/C(C#N)=C/c1c[nH]c2ncc(-c3ccc(N4CCN(C)CC4)cc3)cc12)c1ccc(F)cc1` [Example 180], the IC50 at GRK5 fell in the range of 50 to 100 nM; on GRK2, 100 to 500 nM.

For the compound `C[C@@H](NC(=O)/C(C#N)=C/c1c[nH]c2ncc(-c3cccc(N4CCN(C)CC4)c3)cc12)c1ccc(F)cc1` [Example 181, (R,E)-2-cyano-N-(1-(4-fluorophenyl)ethyl)-3-(5-(3-(4-methylpiperazin-1-yl)phenyl)-1H-pyrrolo[2,3-b]pyridin-3-yl)acrylamide], the IC50 at GRK5 was at most 50 nM; on GRK2 it was 100 to 500 nM.

As for `COc1ccc([C@@H](C)NC(=O)/C=C/c2c[nH]c3ncc(-c4ccc(N5CCN(C(C)=O)CC5)cc4)cc23)cc1OC` [Example 182], the IC50 was at most 50 nM at GRK5 and 100 to 500 nM on GRK2.

In the case of `COc1ccc([C@@H](C)NC(=O)/C=C/c2c[nH]c3ncc(-c4cccc(CN5CCN(C)CC5)c4)cc23)cc1OC` [Example 183], the IC50 on GRK5 is at most 50 nM; at GRK2, above 10000 nM.
